The data set can be described thus: Human HepG2 cell viability assay in 384 well format. On the set-up: dose 125 nL, time 70.5 hour; concentration not given beside the values. The data set is classed as toxicity, cell-based. To be noted: HepG2 cells, read-out: Inhibition.

The values that follow come from ChEMBL document CHEMBL3507680, “University of Dundee, Gates Library screen for HepG2 cell viability”.

Regarding `c1coc(CN2CCn3c(nc4ccccc43)C2)c1`, the cytotoxicity at 70.5 h came to 29.8%. The figure for `Cc1cc(Cc2ccc(S(=O)(=O)N3CCOCC3)cc2)c(=O)[nH]n1` is 12.1%; for `CS(=O)(=O)N(Cc1ccon1)c1ccc(F)cc1` it is -2.76%. On to `CS(=O)(=O)N(Cc1ccon1)c1ccc2c(c1)OCO2`, for which the cytotoxicity at 70.5 h was -6.03%. For `Cc1cc(C(F)(F)F)cc(=O)n1CCn1cc(Cl)cn1`, the cytotoxicity at 70.5 h is -11.3%. For the compound `Cc1cccc(N2CCC3(CCCN3Cc3c(C)nn(C)c3C)CC2)n1`, the cytotoxicity at 70.5 h is -3.1%.

Turning to `O=C1N(c2ccc(Br)cc2)Cc2n[nH]c(=O)n21`, the cytotoxicity at 70.5 h was 23.8%. For `Cc1ccc(-c2ccc(Cl)nn2)cc1S(=O)(=O)N1CCOCC1`, the cytotoxicity at 70.5 h is -5.38%.

As for `CC(C)N1CC(n2ccnc2-c2nccn2C)CC1=O` (centres undefined), the cytotoxicity at 70.5 h was -7.49%.

Turning to `COc1ccc(-n2ncc(C(C)NC3CCSCC3)c2C)cc1` (centres undefined), the cytotoxicity at 70.5 h was -4.41%. Under `CC(C)(C)OC(=O)NC1CCCN(Cc2cccs2)C1` (centres undefined) stands 6.34%; under `CCn1ccnc1CN1C[C@@H](NC(=O)C2CC2)[C@H](c2ccc(C)cc2)C1`, 23.8%. For `Cc1nc2ccccc2n1Cc1cc(C(=O)N2C[C@@H](C)O[C@@H](C)C2)no1`, the cytotoxicity at 70.5 h was -8.42%.

For `CCCC1(CO)CCCN(C(=O)CCCn2nc(C)cc2C)C1` (centres undefined), the cytotoxicity at 70.5 h is -0.556%. Under `CN(c1ccc(C(=O)NCCCN2CCCCC2)c(Cl)c1)S(C)(=O)=O` stands -2.79%; under `Fc1ccc(-c2noc3c2CN(CC2CC2)CC3)cc1F`, -29.6%; under `CN(C)CCCNC(=O)c1ccc(N(C)S(C)(=O)=O)cc1Cl`, -5.53%. Under `CCC(NC(=O)C1CCN(S(C)(=O)=O)CC1)c1ccc(C)c(C)c1` (centres undefined) stands -4.17%; under `CCCNCc1ccc(-c2cc(N)nc3[nH]ccc23)cc1`, -0.725%; under `CC(C)(C)OC(=O)NC1CCCN(Cc2cccc(O)c2)C1` (centres undefined), -4.69%. The figure for `CCOc1ccccc1C(C(=O)O)N(C)Cc1nc(C)c[nH]1` (centres undefined) is -6.68%; for `CCC(C)N(Cc1cc(C)n[nH]1)Cc1ccccc1Cl` (centres undefined) it is -10.8%; for `O=C1NC[C@@]2(C(=O)O)CN(Cc3cccc(Oc4ccccc4)c3)C[C@@H]12` it is -4.3%. As for `O=C(NCc1cc2n(n1)CCCNC2)C1(c2ccc(Cl)cc2)CCC1`, the cytotoxicity at 70.5 h came out at 1.64%. Take `Cc1nnc(CCNC(=O)C2CC(=O)N(C(C)(C)C)C2)s1` (centres undefined): the cytotoxicity at 70.5 h came out at 26.2%. The figure for `O=C1COc2cc(C(=O)NS(=O)(=O)c3ccc(F)cc3)ccc2N1` is -17.6%; for `O=C1COc2ccc(C(=O)NS(=O)(=O)c3cc(F)ccc3F)cc2N1` it is -8.54%; for `COc1ccc(OCCN2CCN(Cc3nccn3C)CC2)cc1` it is 12.8%. Consider `CCN(CC1CCOC1)C(=O)c1cc(F)ccc1N1CCN(C)CC1` (centres undefined), for which the cytotoxicity at 70.5 h worked out at 46%. For `CCOCC1CCCN(C(=O)NCc2ccc(-c3ccn[nH]3)cc2)C1` (centres undefined), the cytotoxicity at 70.5 h was 12.5%. Turning to `CSC(C)C(=O)N1CCCN(c2ncccc2C#N)CC1` (centres undefined), the cytotoxicity at 70.5 h is 12.4%. The figure for `COc1ccc(C(=O)N2CCCC2c2cnn(C)c2)cn1` (centres undefined) is 9.21%; for `CCN(CC1CCOC1)C(=O)c1ccc(N2CCOCC2)c(F)c1` (centres undefined) it is -6.24%; for `Cc1occc1C(=O)N1CCCN(Cc2nccn2C)CC1` it is -8.79%. The figure for `N#Cc1ccccc1N1CCCN(C(=O)NCc2cc[nH]n2)CC1` is -6.85%; for `CCN(CC1CCOC1)C(=O)c1ccccc1S(C)(=O)=O` (centres undefined) it is -4.17%; for `CCOc1ccccc1N1CCN(C(=O)NCc2cc[nH]n2)CC1` it is 18.3%. Under `CC(C)(C)c1ncc(C(=O)NCCNC(=O)c2ccco2)s1` stands -6.05%; under `CC(C)(C)c1ncc(C(=O)NCCNC(=O)c2ccc(O)cc2)s1`, -7.09%.
